Key:
[1] = Tasting in sweet/salty solution (flavour profile by testers); format: in vivo
Protocol: The actions found were evaluated with a scale of from 1 (action scarcely perceptible) to 9 (action highly perceptible).
The 5-acetyl-2,5-dimethyl-2-hydroxy-tetrahydrofuran-3-one from Example 1 (2 ppm diacetyl dimer of formula (I) in aqueous 5 wt. % sucrose or 0.5% sodium chloride solution) was investigated for its flavouring action by 9 testers.
The 2,5-diacetyl-3a,5,6,6a-tetrahydro-6a-hydroxy-2,3a,5-trimethylfuro[2,3-d]-1,3-dioxole from Example 1a (1 ppm diacetyl trimer of formula (II) in aqueous 5 wt. % sucrose or 0.5% sodium chloride solution) was investigated for its flavouring action by 9 testers.
The aromatic and/or flavouring composition containing diacetyl dimer of formula (I) and diacetyl trimer of formula (II) from example (1b) (1 ppm of the composition in aqueous 5 wt. % sucrose or 0.5% sodium chloride solution) was investigated for its flavouring action by 7 testers.
For comparison, a flavour profile of diacetyl (1 ppm in aq. 5% sucrose or 0.5% sodium chloride solution) was produced under otherwise identical conditions: fatty (oily) (5), cream (5), butter (7), milk (4), condensed milk (4), fruity (2), cheesy (2), sweet (4), vanillin (2), intensity (7), impact (7), fullness (7), adhesive (5), soft (6).

[2] = Stability on heating and in formulations; format: physicochemical; conditions: for decomposition when heated: heated at 60° C. to 100° C. for 10 minutes
[3] = 2 ppm in aqueous 5 wt. % sucrose or 0.5% sodium chloride solution, scale 1 to 9
[4] = 1 ppm in aq. 5% sucrose or 0.5% sodium chloride solution, scale 1 to 9
[5] = 1 ppm in aqueous 5 wt. % sucrose or 0.5% sodium chloride solution, scale 1 (scarcely perceptible) to 9 (highly perceptible)
[6] = 1 ppm in aqueous 5 wt. % sucrose or 0.5% sodium chloride solution, scale 1 to 9

Compound | decomposition when heated [2] | flavour profile: fatty (oily) [1, 5] | flavour profile: adhesive [1, 6] | flavour profile: butter [1, 6] | flavour profile: cream [1, 6] | flavour profile: fullness [1, 6] | flavour profile: impact [1, 6] | flavour profile: intensity [1, 6] | flavour profile: soft [1, 6] | flavour profile: sweet [1, 6] | flavour profile: vanillin [1, 6] | further results
CC(=O)C1(C)CC(=O)C(C)(O)O1 (racemic) [diacetyl dimer of formula (I), 5-acetyl-2,5-dimethyl-2-hydroxy-tetrahydrofuran-3-one] | does not decompose |  |  |  |  |  |  |  |  |  |  | flavour profile: cream ([1]; 2 ppm in aqueous 5 wt. % sucrose or 0.5% sodium chloride solution, scale 1 (scarcely perceptible) to 9 (highly perceptible)): 5; flavour profile: butter [1, 3]: 5; flavour profile: caramel [1, 3]: 3; flavour profile: fullness [1, 3]: 6; flavour profile: intensity [1, 3]: 5; flavour profile: soft [1, 3]: 6; flavour profile: sweet [1, 3]: 5; flavour profile: toffee [1, 3]: 4; flavour profile: vanillin [1, 3]: 3; stability in formulations compared with diacetyl ([2]; nutrition, oral hygiene, luxury product or oral pharmaceutical formulations, in particular acidic or basic pH-value): significantly more stable than diacetyl
CC(=O)C(C)=O [diacetyl, 2,3-butanedione] |  | 5 | 5 | 7 | 5 | 7 | 7 | 7 | 6 | 4 | 2 | flavour profile: cheesy [1, 4]: 2; flavour profile: condensed milk [1, 4]: 4; flavour profile: fruity [1, 4]: 2; flavour profile: milk [1, 4]: 4
CC(=O)C1(C)CC2(O)OC(C)(C(C)=O)OC2(C)O1 (racemic) [diacetyl trimer of formula (II), 2,5-diacetyl-3a,5,6,6a-tetrahydro-6a-hydroxy-2,3a,5-trimethylfuro[2,3-d]-1,3-dioxole] | does not decompose | 7 | 8 | 8 | 6 | 7 | 7 | 6 | 6 | 6 | 3 | flavour profile: caramel [1, 6]: 4; flavour profile: fresh cheese/quark [1, 6]: 4; flavour profile: toffee [1, 6]: 6

Source: patent US8287934B2, “Use of diacetyl dimer as an aromatic and/or flavouring substance” (Symrise AG, priority 2006, dated 2012)
